Test results reported in ChEMBL document CHEMBL3046375, “Antifungal activity of simple compounds with maleic anhydride or dimethylmaleimide structure against Botrytis cinerea” (J Pestic Sci, 2012).
Values after ≈ are worked out from the molar mass of the structure shown.

Test system: Botrytis cinerea
Experiment: Antifungal actiivty against Botryotinia fuckeliana ACCC 30387 assessed as inhibition of radial growth after 3 days
Type: functional
Conditions: ACCC 30387, 72 h

Row | Structure (SMILES) | MIC
1 | CCOC(=O)C(CC1=C(C)C(=O)OC1=O)C(=O)OCC | 8 µg/mL (≈ 28.1 µM)
2 | CCCCCC1=C(C)C(=O)OC1=O | 5 µg/mL (≈ 27.4 µM)
3 | O=C1OC(=O)c2ccccc21 [PHTHALIC ANHYDRIDE] | > 1000 µg/mL
4 | Cc1ccc2c(c1)C(=O)OC2=O | > 1000 µg/mL
5 | CC1=C(C)C(=O)N(c2ccc(F)c(F)c2F)C1=O | 1 µg/mL (≈ 3.92 µM)
6 | CC1=C(C)C(=O)N(c2ccc(C)cc2)C1=O | 5 µg/mL (≈ 23.2 µM)
7 | CC1=C(CNc2cc(Cl)cc(Cl)c2)C(=O)OC1=O | 50 µg/mL (≈ 175 µM)
8 | CCCCCCCCN1C(=O)C(C)=C(C)C1=O | 50 µg/mL (≈ 211 µM)
9 | CC1=C(C)C(=O)N(c2cccc([N+](=O)[O-])c2C)C1=O | 10 µg/mL (≈ 38.4 µM)
10 | O=C1OC(=O)C(Cl)=C1Cl | 100 µg/mL (≈ 599 µM)
11 | O=C1C=C(c2ccccc2)C(=O)O1 | 150 µg/mL (≈ 861 µM)
12 | CC1=C(C)C(=O)N(c2cc(Cl)cc(Cl)c2)C1=O | 0.1 µg/mL (≈ 0.37 µM)
13 | CCCCCCN1C(=O)C(C)=C(C)C1=O | 5 µg/mL (≈ 23.9 µM)
14 | CCCCCCC1=C(C)C(=O)OC1=O | 4 µg/mL (≈ 20.4 µM)
15 | CC1=C(C)C(=O)N(CCc2ccccc2)C1=O | 75 µg/mL (≈ 327 µM)
16 | CC1=C(C)C(=O)N(CCCc2ccccc2)C1=O | 10 µg/mL (≈ 41.1 µM)
17 | O=C1OC(=O)c2cc(Cl)c(Cl)cc21 | 500 µg/mL (≈ 2300 µM)
18 | CCCCCCCCCCCCN1C(=O)C(C)=C(C)C1=O | 50 µg/mL (≈ 170 µM)
19 | CC1=C(C)C(=O)N(CC(C)C)C1=O | 50 µg/mL (≈ 276 µM)
20 | CC(=O)OCC1=C(C)C(=O)OC1=O | 20 µg/mL (≈ 109 µM)
21 | O=C1OC(=O)c2c(F)cccc21 | 500 µg/mL (≈ 3010 µM)
22 | O=C1C=CC(=O)O1 [MALEIC ANHYDRIDE] | 250 µg/mL (≈ 2550 µM)
23 | O=C(O)c1ccc2c(c1)C(=O)OC2=O | > 1000 µg/mL

Row | Structure (SMILES) | MIC
24 | CC1=C(COC(=O)c2ccccc2)C(=O)OC1=O | 15 µg/mL (≈ 60.9 µM)
25 | CC1=C(C)C(=O)N(c2ccccc2)C1=O | 1 µg/mL (≈ 4.97 µM)
26 | CC1=C(C)C(=O)N(c2ccc(Cl)cc2)C1=O | 10 µg/mL (≈ 42.4 µM)
27 | O=C1OC(=O)c2c(F)c(F)c(F)c(F)c21 | 500 µg/mL (≈ 2270 µM)
28 | CC1=C(CBr)C(=O)OC1=O | 10 µg/mL (≈ 48.8 µM)
29 | CC1=C(CO)C(=O)OC1=O | > 1000 µg/mL
30 | CCCCN1C(=O)C(C)=C(C)C1=O | 5 µg/mL (≈ 27.6 µM)
31 | CCCCCN1C(=O)C(C)=C(C)C1=O | 5 µg/mL (≈ 25.6 µM)
32 | Nc1c(Cl)cc([N+](=O)[O-])cc1Cl [ALLISAN] | 0.1 µg/mL (≈ 0.483 µM)
33 | O=C1C=C(Br)C(=O)O1 | 1000 µg/mL (≈ 5650 µM)
34 | O=C1OC(=O)c2c(F)ccc(F)c21 | 150 µg/mL (≈ 815 µM)
35 | O=C1OC(=O)c2c(Cl)ccc(Cl)c21 | > 1000 µg/mL
36 | CCCC1=C(C)C(=O)OC1=O | 25 µg/mL (≈ 162 µM)
37 | CC1=C(C)C(=O)N(C2CCCCC2)C1=O | 10 µg/mL (≈ 48.2 µM)
38 | CCCCCCCCCCC1=C(C)C(=O)OC1=O | 3 µg/mL (≈ 11.9 µM)
39 | O=C1OC(=O)C(c2ccccc2)=C1c1ccccc1 | 20 µg/mL (≈ 79.9 µM)
40 | O=C1OC(=O)c2c1ccc(Cl)c2Cl | > 1000 µg/mL
41 | O=C1OC(=O)C(CBr)=C1CBr | 125 µg/mL (≈ 440 µM)
42 | CC1=C(C)C(=O)OC1=O | 3 µg/mL (≈ 23.8 µM)
43 | CC1=C(CCC(=O)O)C(=O)OC1=O | 80 µg/mL (≈ 434 µM)
44 | CC1=C(C)C(=O)N(Cc2ccccc2)C1=O | 5 µg/mL (≈ 23.2 µM)
45 | CC1=C(C)C(=O)N(c2nc3ccccc3[nH]2)C1=O | 10 µg/mL (≈ 41.5 µM)

Test system: Botrytis cinerea
Experiment: Antifungal actiivty against Botryotinia fuckeliana
Type: functional
Conditions: not given

Row | Structure (SMILES) | MIC
46 | CCCCC1CC2=C(CC(C(O)CCCC)C3=C1C(=O)OC3=O)C(=O)OC2=O (stereo unspecified) | 0.78 µg/mL (≈ 2 µM)
